Laboratory results from ChEMBL document CHEMBL5029181, “Synthesis and evaluation of potent novel inhibitors of human sulfide:quinone oxidoreductase” (Bioorg Med Chem Lett, 2021).
Values after ≈ are worked out from the molar mass of the structure shown.

What was measured:
[1] = target: Sulfide:quinone oxidoreductase, mitochondrial (Homo sapiens, UniProt Q9Y6N5); experiment: Inhibition of human SQOR
[2] = Permeability of the compound from apical to basolateral side in human Caco-2 cells; type: ADME, cell-based; conditions: read-out: permeability
[3] = Permeability of the compound from basolateral to apical side in human Caco-2 cells; type: ADME, cell-based; conditions: read-out: permeability
[4] = AUClast in mouse at 10 mg/kg, ip; type: ADME, organism-based; parameters: time 0 - last, route intraperitoneal, dose 10 mg/kg; conditions: in vivo
[5] = Protein binding in mouse plasma; type: ADME, cell-free; conditions: read-out: PPB (converted)
[6] = Half life in mouse at 10 mg/kg, ip; type: ADME, organism-based; conditions: in vivo
[7] = Aqueous solubility of the compound at pH 7; conditions: buffer

Chain of Sulfide:quinone oxidoreductase, mitochondrial (Q9Y6N5 whole entry): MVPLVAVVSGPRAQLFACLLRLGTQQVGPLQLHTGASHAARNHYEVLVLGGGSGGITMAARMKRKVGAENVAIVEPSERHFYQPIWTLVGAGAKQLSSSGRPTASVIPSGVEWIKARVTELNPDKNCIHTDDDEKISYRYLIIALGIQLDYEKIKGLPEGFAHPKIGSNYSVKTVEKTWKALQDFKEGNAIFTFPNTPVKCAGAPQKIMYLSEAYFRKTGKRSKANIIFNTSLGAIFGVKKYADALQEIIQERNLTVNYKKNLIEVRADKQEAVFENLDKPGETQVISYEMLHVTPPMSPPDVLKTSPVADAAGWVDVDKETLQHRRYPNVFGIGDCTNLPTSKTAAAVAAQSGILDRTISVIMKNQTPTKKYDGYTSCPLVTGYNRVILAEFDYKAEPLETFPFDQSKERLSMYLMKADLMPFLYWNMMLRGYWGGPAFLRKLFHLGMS

SMILES	IC50 [1] [nM]	also measured
COc1nc(C(C)(C)C)cc(-c2ccc(F)cc2)c1C#N	153	
COc1nc(-c2ccccc2)cc(-c2ccccc2)c1C#N	53	
COc1nc(-c2ccccn2)cc(-c2ccc(F)cc2)c1C(N)=O	16200	
COc1nc(-c2ccccn2)cc(-c2ccc(F)cc2)c1C#N	14	
COCCOc1nc(-c2ccccc2)cc(-c2ccc(F)cc2)c1C#N	123	
COc1nc(-c2ccccc2)cc(-c2ccncc2)c1C#N	541	
COc1cccc(-c2cc(-c3ccc(F)cc3)c(C#N)c(OC)n2)c1	108	
COc1nc(-c2ccccc2)cc(-c2ccc(Cl)cc2Cl)c1C#N	> 100000	
Cc1cccnc1-c1cc(-c2ccc(F)cc2)c(C#N)c(OCc2cccnc2)n1	36	
COc1nc2c(c(-c3ccccc3)c1C#N)Cc1ccccc1-2	2.1	
COc1ccc(-c2cc(-c3ccc(F)cc3)c(C#N)c(OC)n2)cc1	1360	
CCSc1nc(-c2ccccc2)cc(-c2ccccc2)c1C#N	132	
C=CCOc1nc(-c2ccccn2)cc(-c2ccc(F)cc2)c1C#N	5.5	
COc1nc(-c2ncccc2C)cc(-c2ccc(F)cc2)c1C#N	8.7	Papp A→B [2]: 0.455 ×10⁻⁶ cm/s; Papp B→A [3]: 0.769 ×10⁻⁶ cm/s; AUC(0-t) [4]: 42 ng·h/mL; fraction unbound [5]: 0.0036; half-life [6]: 5.96 h; solubility [7]: 0.013 µM (≈ 4.15 ng/mL)
COc1nc(-c2ncccc2C)cc(-c2ccc(N)cc2)c1C#N		AUC(0-t) [4]: 1080 ng·h/mL; fraction unbound [5]: 0.022; half-life [6]: 1.13 h
COc1nc(-c2ccccc2)cc(-c2ccc(Cl)cc2)c1C#N	252	
COc1nc(-c2cccnc2)cc(-c2ccc(F)cc2)c1C#N	213	
COc1nc(-c2ccccc2)cc(-c2ccc(F)cc2)c1C#N	25	
COc1ccccc1-c1cc(-c2ccc(F)cc2)c(C#N)c(OC)n1	75	
COc1nc(-c2ccncc2)cc(-c2ccc(F)cc2)c1C#N	17400	
COc1nc(-c2ccccn2)cc(C(C)(C)C)c1C#N	850	
N#Cc1c(-c2ccccc2)cc(-c2ccccc2)nc1OCc1ccccc1	100	
